Relative viability data for six cell lines are collected here from the supplement of paper PMC10307832.

What all share (test): relative viability (nuclei count vs DMSO), 5 days (fraction); higher = more cells survive
Compound in experiment [1]: O=C(NCCCNc1nc(Nc2cccc(NC(=O)N3CCCC3)c2)ncc1I)c1cccs1 [BX 795]
The gist of the method:
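MetaXpress counted nuclei in 4× images of lung cancer cell lines that had been fixed, permeabilised and Hoechst-stained in one step. Before that, cells in 1536-well plates were kept overnight at 37 °C, pinned with five √10-spaced library-drug doses on vehicle-anchored plates, and cultured 5 days without medium change. Viability takes treated-well nuclei over vehicle-well nuclei and uses the median across plates. Plates were accepted only at control CV below 25% and at least one doubling.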

Compound in experiment [2]: O=C(NCCCNc1nc(Nc2cccc(NC(=O)N3CCCC3)c2)ncc1I)c1cccs1 [BX 795] + C[C@]1(O)C[C@@H](c2nc(-c3ccc4ccc(-c5ccccc5)nc4c3)c3c(N)nccn32)C1 [Linsitinib] (partner 1 µM)
The gist of the method: (§1)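 The day after seeding in 1536-well plates, lung cancer cell lines were treated by pin tool with a single drug, or with a fixed anchor-drug dose together with five library-drug doses (not always all listed) in √10 steps. After 5 days, a combined fix-and-stain solution (final 0.05% Triton X-100, 1% formaldehyde, 1 ug/ml Hoechst) was added. Nuclei counted on 4× images gave relative viability as treated counts over vehicle counts, reported as the median of duplicate plates.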

Compound in experiment [3]: O=C(NCCCNc1nc(Nc2cccc(NC(=O)N3CCCC3)c2)ncc1I)c1cccs1 [BX 795] + Cc1nc(Nc2ncc(C(=O)Nc3c(C)cccc3Cl)s2)cc(N2CCN(CCO)CC2)n1 [Dasatinib] (partner 0.075 µM)
The method in brief:
as §1

Compound in experiment [4]: O=C(NCCCNc1nc(Nc2cccc(NC(=O)N3CCCC3)c2)ncc1I)c1cccs1 [BX 795] + N=C(N)NC(=N)NCCc1ccccc1 [Phenformin] (partner 250 µM)
The gist of the method: as §1

Compound in experiment [5]: O=C(NCCCNc1nc(Nc2cccc(NC(=O)N3CCCC3)c2)ncc1I)c1cccs1 [BX 795] + NC(=O)Nc1cc(-c2cccc(F)c2)sc1C(=O)N[C@H]1CCCNC1 [AZD7762] (partner 0.2 µM)
The gist of the method: as §1

For NCI-H3122, the relative viability in experiment [1] (0.04 µM) worked out at 0.981; in experiment [1] (0.1265 µM), 1.01; in experiment [1] (0.4 µM), 1.04; in experiment [1] (1.265 µM), 1.06; in experiment [2] (first compound 0.04 µM), 0.989; in experiment [2] (first compound 0.1265 µM), 1.02. The relative viability in experiment [2] (first compound 0.4 µM) amounted to 1.08; in experiment [2] (first compound 1.265 µM), 1.1; in experiment [3] (first compound 0.04 µM), 0.791; in experiment [3] (first compound 0.1265 µM) it was 1; in experiment [3] (first compound 0.4 µM), 0.8; in experiment [3] (first compound 1.265 µM), 0.852. Moreover, the relative viability stood at 0.409 in experiment [4] (first compound 0.04 µM); 0.38 in experiment [4] (first compound 0.1265 µM); 0.381 in experiment [4] (first compound 0.4 µM); 0.348 in experiment [4] (first compound 1.265 µM); 1.06 in experiment [5] (first compound 0.04 µM); 1.07 in experiment [5] (first compound 0.1265 µM). In addition, the relative viability in experiment [5] (first compound 0.4 µM) was found to be 0.937; in experiment [5] (first compound 1.265 µM) it was 1.03.
In the case of LCLC-97TM1, the relative viability in experiment [1] (0.04 µM) was 1.11; in experiment [1] (0.1265 µM), 1.02; in experiment [1] (0.4 µM), 1.1; in experiment [1] (1.265 µM), 0.716; in experiment [2] (first compound 0.04 µM), 0.156; in experiment [2] (first compound 0.1265 µM), 0.204. The relative viability in experiment [2] (first compound 0.4 µM) worked out at 0.198; in experiment [2] (first compound 1.265 µM) it was 0.153; in experiment [3] (first compound 0.04 µM) it was 0.719; in experiment [3] (first compound 0.1265 µM), 0.888; in experiment [3] (first compound 0.4 µM), 0.764; in experiment [3] (first compound 1.265 µM), 0.76. The relative viability in experiment [4] (first compound 0.04 µM) was found to be 0.495; in experiment [4] (first compound 0.1265 µM) it was 0.444; in experiment [4] (first compound 0.4 µM) it was 0.457; in experiment [4] (first compound 1.265 µM), 0.348; in experiment [5] (first compound 0.04 µM) it was 0.334; in experiment [5] (first compound 0.1265 µM), 0.352. The relative viability in experiment [5] (first compound 0.4 µM) amounted to 0.239; in experiment [5] (first compound 1.265 µM) it was 0.346.
On to EPLC-272H, for which the relative viability in experiment [1] (0.04 µM) is 1.01; in experiment [1] (0.1265 µM), 0.899; in experiment [1] (0.4 µM), 0.885; in experiment [1] (1.265 µM), 0.748; in experiment [2] (first compound 0.04 µM), 1.33; in experiment [2] (first compound 0.4 µM) it was 1.06. Also, the relative viability in experiment [2] (first compound 1.265 µM) was determined as 0.972; in experiment [3] (first compound 0.04 µM) it was 0.436; in experiment [3] (first compound 0.1265 µM) it was 0.329; in experiment [3] (first compound 0.4 µM) it was 0.274; in experiment [3] (first compound 1.265 µM), 0.267; in experiment [4] (first compound 0.04 µM), 0.364. Further, the relative viability in experiment [4] (first compound 0.1265 µM) is 0.216; in experiment [4] (first compound 0.4 µM), 0.284; in experiment [4] (first compound 1.265 µM), 0.272; in experiment [5] (first compound 0.04 µM), 0.215; in experiment [5] (first compound 0.1265 µM) it was 0.337; in experiment [5] (first compound 0.4 µM), 0.234. Besides, in experiment [5] (first compound 1.265 µM), the relative viability worked out at 0.259.
With NCI-H596, the relative viability in experiment [1] (0.04 µM) stood at 1.05; in experiment [1] (0.1265 µM), 1.04; in experiment [1] (0.4 µM), 1; in experiment [1] (1.265 µM), 0.933; in experiment [2] (first compound 0.04 µM), 1.09; in experiment [2] (first compound 0.1265 µM), 1.25. Besides, the relative viability in experiment [2] (first compound 0.4 µM) was found to be 1.16; in experiment [2] (first compound 1.265 µM), 1.03; in experiment [3] (first compound 0.04 µM), 0.626; in experiment [3] (first compound 0.1265 µM), 0.587; in experiment [3] (first compound 0.4 µM), 0.561; in experiment [3] (first compound 1.265 µM), 0.591. In addition, the relative viability in experiment [4] (first compound 0.04 µM) amounted to 0.681; in experiment [4] (first compound 0.1265 µM), 0.802; in experiment [4] (first compound 0.4 µM), 0.805; in experiment [4] (first compound 1.265 µM), 0.887; in experiment [5] (first compound 0.04 µM) it was 1.11; in experiment [5] (first compound 0.1265 µM), 0.956. In addition, the relative viability is 1.14 in experiment [5] (first compound 0.4 µM) and 1.03 in experiment [5] (first compound 1.265 µM).
Regarding LOU-NH91, the relative viability came out at 1.01 in experiment [1] (0.04 µM); 0.967 in experiment [1] (0.1265 µM); 0.982 in experiment [1] (0.4 µM); 0.961 in experiment [1] (1.265 µM); 0.925 in experiment [2] (first compound 0.04 µM); 0.956 in experiment [2] (first compound 0.1265 µM). Also, the relative viability was determined as 0.802 in experiment [2] (first compound 0.4 µM); 0.94 in experiment [2] (first compound 1.265 µM); 0.63 in experiment [3] (first compound 0.04 µM); 0.662 in experiment [3] (first compound 0.1265 µM); 0.583 in experiment [3] (first compound 0.4 µM); 0.564 in experiment [3] (first compound 1.265 µM). Also, the relative viability in experiment [4] (first compound 0.04 µM) was 0.861; in experiment [4] (first compound 0.1265 µM), 0.713; in experiment [4] (first compound 0.4 µM), 0.658; in experiment [4] (first compound 1.265 µM), 0.697; in experiment [5] (first compound 0.04 µM), 0.757; in experiment [5] (first compound 0.1265 µM) it was 0.765. In addition, the figures for the relative viability in experiment [5] (first compound 0.4 µM) and in experiment [5] (first compound 1.265 µM) were 0.71 and 0.722, respectively.
For LC-2-ad, the relative viability in experiment [1] (0.04 µM) was 1.04; in experiment [1] (0.1265 µM), 0.924; in experiment [1] (0.4 µM), 0.912; in experiment [1] (1.265 µM) it was 0.661; in experiment [2] (first compound 0.04 µM), 0.83; in experiment [2] (first compound 0.1265 µM) it was 0.715. For the same cell line, the relative viability in experiment [2] (first compound 0.4 µM) was 0.637; in experiment [2] (first compound 1.265 µM), 0.351; in experiment [3] (first compound 0.04 µM), 0.416; in experiment [3] (first compound 0.1265 µM), 0.497; in experiment [3] (first compound 0.4 µM), 0.391; in experiment [3] (first compound 1.265 µM), 0.285. For the same cell line, the relative viability in experiment [4] (first compound 0.04 µM) was 0.585; in experiment [4] (first compound 0.1265 µM), 0.5; in experiment [4] (first compound 0.4 µM), 0.48; in experiment [4] (first compound 1.265 µM), 0.41; in experiment [5] (first compound 0.04 µM) it was 0.806; in experiment [5] (first compound 0.1265 µM) it was 0.808. In addition, the results for the relative viability in experiment [5] (first compound 0.4 µM) and in experiment [5] (first compound 1.265 µM) were 0.795 and 0.858, respectively.
